Reference: ChEMBL document CHEMBL3044694, “Induction of disease resistance by acibenzolar-S-methyl and o-hydroxyethylorutin against Botrytis cinerea in tomato plants” (Crop Prot, 2006)
Calls of active or inactive are those of the source. The calls are words filed in the database; no cut-off is given here.

Assays:
Solanum lycopersicum [1] = assay: (§1) Induction of systemic acquired resistance activity in Botrytis cinerea infected Solanum lycopersicum (tomato) leaves assessed as increase in guaiacol peroxidase activity at 0.3 mM applied as spray 24 hr prior to inoculation measured after 6 to 48 hr by colorimetric assay relative to untreated infected control; format: functional, organism-based
Solanum lycopersicum [2] = assay: as §1, with “untreated” for “untreated infected”; format: functional, organism-based
Solanum lycopersicum [3] = assay: Induction of systemic acquired resistance activity in Solanum lycopersicum (tomato) leaves assessed as decrease in hydroxyl radical generation at 0.3 mM applied as spray 24 hr prior to inoculation measured after 2 to 48 hr by TBARS assay relative to untreated control; format: functional, organism-based
Solanum lycopersicum [4] = assay: Induction of systemic acquired resistance activity in Botrytis cinerea infected Solanum lycopersicum (tomato) leaves assessed as increase in H2O2 level at 0.3 mM applied as spray 24 hr prior to inoculation measured after 2 to 6 hr relative to untreated infected control; format: functional, organism-based
Solanum lycopersicum [5] = assay: Induction of systemic acquired resistance activity in Botrytis cinerea infected Solanum lycopersicum (tomato) leaves assessed as induction of superoxide anion radical generation at 0.3 mM applied as spray 24 hr prior to inoculation measured after 2 to 6 hr by nitro blue tetrazolium reduction assay relative to control; format: functional, organism-based
Solanum lycopersicum [6] = assay: Induction of systemic acquired resistance activity in Botrytis cinerea infected Solanum lycopersicum (tomato) leaves assessed as increase in H2O2 level at 0.3 mM applied as spray 24 hr prior to inoculation measured after 2 to 6 hr relative to untreated control; format: functional, organism-based
Solanum lycopersicum [7] = assay: Phytotoxicity in Solanum lycopersicum (tomato) at 0.3 mM applied as spray; format: organism-based; conditions: in vivo, other, 300 µM
Solanum lycopersicum [8] = assay: Induction of systemic acquired resistance activity in Botrytis cinerea infected Solanum lycopersicum (tomato) leaves assessed as visible lesions on leaf surface at 0.3 mM applied as spray 24 hr prior to inoculation measured after 14 days (reference value: 66%); format: functional

SMILES: CSC(=O)c1cccc2nnsc12 [ACIBENZOLAR-S-METHYL]
- Activity (Solanum lycopersicum [1]): Active
- Activity (Solanum lycopersicum [2]): Active
- Activity (Solanum lycopersicum [3]): Active
- Activity (Solanum lycopersicum [4]): Active
- Activity (Solanum lycopersicum [5]): Active
- Activity (Solanum lycopersicum [6]): Active
- Activity (Solanum lycopersicum [7]): Non-toxic
- Activity (Solanum lycopersicum [8]): 27%
